From publication PMC7734798 (ACS Medicinal Chemistry Letters, 2020) come the findings set out here.

For data set [1], the system named is TREM2. The data set can be described thus: Immunomodulation assay: TREM2 (M2 marker) expression in LPS-treated N9 microglial cells (Western blot). Particulars: 100 ng/mL LPS, 6 h pretreatment + 24 h. It is filed as cell-based, mouse. The text has this:
(§1) Microglia, essential regulators of neuroinflammatory processes, can be polarized to two distinct activation states: M1 and M2. M1 microglia have proinflammatory, neurotoxic properties and are modeled in vitro through lipopolysaccharides (LPS) activation. Alternatively, M2 microglia are involved in anti-inflammatory processes, contributing to trophic support of neurons and neuroprotective functions. A marked microglial activation with high expression levels of proinflammatory genes is found in MS lesions.[23] Conversely, the neuroprotective effects of the MS drug glatiramer are mediated by activated M2 microglia.[24] To this end, we evaluated whether 1 and 2 modulate microglial shift from an M1 neurotoxic phenotype to an M2 neuroprotective one. […] After pretreatment for 6 h and administration for a further 24 h, the microglial phenotype was evaluated through Western blot analysis of the M1-iNOS (inducible Nitric Oxide Synthase) and M2-TREM2 (Triggering Receptor Expressed on Myeloid cells 2) markers (Figure 6). We also assessed nitrite production, due to iNOS induction, in the incubation media. […]
(§2) Nitrite accumulation in cell media was assayed by the Griess reaction. […] Absorbance was read at 540 nm using a plate reader after 15 min of incubation at room […]
(§3) After 24 hours, the viability was evaluated through the MTT assay. […]
A general note: A western blot detects proteins with antibodies after separation by electrophoresis.

Data set [2] has as its system iNOS. The data set can be described thus: Immunomodulation assay: iNOS (M1 marker) expression in LPS-treated N9 microglial cells (Western blot). It is filed as cell-based, mouse. Particulars: 100 ng/mL LPS, 6 h pretreatment + 24 h, even at 0.5 μM.
Description: as §1, §2, §3

Data set [3] deals with primary rat cerebellar granule neurons (CGNs). The conditions noted are these: for cell survival/death in CGNs, % mean ± SE of controls (MTT): 24 h treatment; for neurotoxicity profile in CGNs (in words): 5-50 μM, 24 h.
Data set [4] concerns Oli-Neu cells. The data set can be described thus: Oli-Neu cell proliferation and differentiation assay: cell counting and measure of filaments. It is filed as cell-based, mouse. The conditions noted are these: 5 μM, 48 h. The text has this:
OPC proliferation and migration to the CNS injury site as well as their differentiation are critical steps toward remyelination in MS. HDAC activity plays a crucial role in OPC proliferation/differentiation; therefore, HDAC modulation is widely considered a promising therapeutic target for MS.[30] […] Therefore, we tested the effect of our compounds on OPC proliferation and differentiation, through cell counting, measure of filaments, and analysis of proliferation/differentiation markers (Figure 7).
Oli-Neu cells were grown in SATO medium (DMEM medium, 2 mM glutamine, 10 μg/ml insulin, 5.5 μg/ml transferrin, 38.72 nM sodium selenite, 100 µM putrescine, 520 nM L-thyroxine (T4), 500 nM triiodo-L-thyronine (T3), 200 nM progesterone, 25 μg/ml of gentamycin) supplemented with 1% heat-inactivated horse serum (HS) in a humidified, 5% CO2 incubator at 37°C. Cell culture medium and all chemicals were from Sigma-Aldrich, except for insulin-transferrin-sodium selenite 100X supplement (Life Technologies Corporation). Cells were plated on 96 well plates, previously coated with 10 μg/mL poly-L-lysine (Sigma-Aldrich; 10 μg/ml) at the density of 2.5 x 10 4/0.2 mL medium/well and treated with increasing concentrations of the compounds (0.5, 1, 5 and 10 μM). […]
Oli-Neu cells proliferation and differentiation assay
48 hours, for cell counting and measure of filaments, 5 random images for each condition were acquired with an Eclipse TS100 (Nikon) microscope using a 10X objective. Cells number and filament length were measured with Fiji ImageJ2 software. […]

The subject of data set [5] is human liver carcinoma immortalized cell line (HepG2). The conditions noted are these: for cell survival/death in HepG2 cells, % mean ± SE of controls (MTT): 24 h treatment; for hepatotoxicity in HepG2 (in words): even at the higher tested concentrations.

Values joined by “and” are separate entries in the source; they are usually repeats but may differ in a detail not shown here. Equal values may be shown once. Read-outs that look alike come from different tables or passages of the source.

As for `CC/C=C\C/C=C\C/C=C\CCCCCCCC(=O)NCCNC(=O)C(CCC)CCC` [compound 1], the “expression of TREM2 (M2 marker)” value in data set [1] was “unchanged expression”. Further, the “microglia production of M1 proinflammatory marker iNOS” value in data set [2] is given as “significantly decrease”. Also, the “cell survival/death in CGNs, % mean ± SE of controls (MTT)” value in data set [3] (5 μM) is 98 ± 18%; in data set [3] (10 μM) it was 107 ± 3%; in data set [3] (25 μM), 89 ± 14%; in data set [3] (50 μM) it was 99 ± 15%. For the same compound, the “neurotoxicity profile in CGNs (in words)” value in data set [3] was “low neurotoxicity profile”. For the same compound, in data set [4], the Oli-Neu cell number entry is “decrease cell number”. For the same compound, the Oli-Neu filament length result in data set [4] is recorded as “parallel increase in filament length”. Moreover, the “cell survival/death in HepG2 cells, % mean ± SE of controls (MTT)” value was 87 ± 13% in data set [5] (5 μM); 93 ± 5% in data set [5] (10 μM); 81 ± 10% and > 80% in data set [5] (25 μM); 64 ± 8% in data set [5] (50 μM). Also, the “hepatotoxicity in HepG2 (in words)” value in data set [5] is “low hepatotoxicity”.

On to `CC/C=C\C/C=C\C/C=C\CCCCCCCC(=O)NCCOC(=O)C(CCC)CCC` [compound 2], for which the “expression of TREM2 (M2 marker)” value in data set [1] is “unchanged expression”. In data set [2], the “microglia production of M1 proinflammatory marker iNOS” value is “significantly decrease”. Also, the “cell survival/death in CGNs, % mean ± SE of controls (MTT)” value in data set [3] (5 μM) came to 97 ± 16%; in data set [3] (10 μM), 110 ± 3%; in data set [3] (25 μM) it was 96 ± 15%; in data set [3] (50 μM), 85 ± 14%. Besides, the “neurotoxicity profile in CGNs (in words)” value in data set [3] is “low neurotoxicity profile”. In addition, the Oli-Neu cell number entry in data set [4] is “decrease cell number”. In addition, the Oli-Neu filament length entry in data set [4] is on record as “parallel increase in filament length”. Besides, the “cell survival/death in HepG2 cells, % mean ± SE of controls (MTT)” value in data set [5] (5 μM) is 102 ± 10%; in data set [5] (10 μM) it was 104 ± 4%; in data set [5] (25 μM) it was 84 ± 6% and > 80%; in data set [5] (50 μM), 80 ± 9%. The “hepatotoxicity in HepG2 (in words)” value in data set [5] was “low hepatotoxicity”.
